The source made the active and inactive calls. No cut-off for these calls is given here.
Experiments:
[1] = target: T1, Aurora kinase A (Homo sapiens) (UniProt O14965); assay: Inhibition of AurA Lys2 labeling site in human Huh-7 cell lysate at 1 uM by KiNativ Profiling analysis relative to control; assay type: subcellular
T1 sequence (whole entry): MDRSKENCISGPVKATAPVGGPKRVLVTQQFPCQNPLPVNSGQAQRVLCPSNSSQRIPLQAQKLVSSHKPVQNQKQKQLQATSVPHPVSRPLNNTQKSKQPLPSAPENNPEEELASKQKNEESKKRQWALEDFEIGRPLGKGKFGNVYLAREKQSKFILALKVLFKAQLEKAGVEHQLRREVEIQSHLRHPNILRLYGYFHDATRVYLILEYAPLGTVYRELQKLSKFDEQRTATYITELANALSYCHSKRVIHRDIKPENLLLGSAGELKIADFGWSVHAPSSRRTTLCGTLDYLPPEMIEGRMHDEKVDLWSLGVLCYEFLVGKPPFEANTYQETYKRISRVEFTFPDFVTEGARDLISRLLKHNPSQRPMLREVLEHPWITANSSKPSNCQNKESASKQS

[2] = target: STE20/SPS1-related proline-alanine-rich protein kinase (Homo sapiens) (UniProt Q9UEW8); assay: Inhibition of STLK3 Lys2 labeling site in human Huh-7 cell lysate at 1 uM by KiNativ Profiling analysis relative to control; assay type: subcellular
[3] = target: Ankyrin repeat and protein kinase domain-containing protein 1 (Homo sapiens) (UniProt Q8NFD2); assay: Inhibition of ANKK1 (unknown origin) at 10 uM by Ambit Kinomescan binding assay relative to control
Ankyrin repeat and protein kinase domain-containing protein 1 (Homo sapiens), sequence (Q8NFD2 whole entry, the tested form may be a part): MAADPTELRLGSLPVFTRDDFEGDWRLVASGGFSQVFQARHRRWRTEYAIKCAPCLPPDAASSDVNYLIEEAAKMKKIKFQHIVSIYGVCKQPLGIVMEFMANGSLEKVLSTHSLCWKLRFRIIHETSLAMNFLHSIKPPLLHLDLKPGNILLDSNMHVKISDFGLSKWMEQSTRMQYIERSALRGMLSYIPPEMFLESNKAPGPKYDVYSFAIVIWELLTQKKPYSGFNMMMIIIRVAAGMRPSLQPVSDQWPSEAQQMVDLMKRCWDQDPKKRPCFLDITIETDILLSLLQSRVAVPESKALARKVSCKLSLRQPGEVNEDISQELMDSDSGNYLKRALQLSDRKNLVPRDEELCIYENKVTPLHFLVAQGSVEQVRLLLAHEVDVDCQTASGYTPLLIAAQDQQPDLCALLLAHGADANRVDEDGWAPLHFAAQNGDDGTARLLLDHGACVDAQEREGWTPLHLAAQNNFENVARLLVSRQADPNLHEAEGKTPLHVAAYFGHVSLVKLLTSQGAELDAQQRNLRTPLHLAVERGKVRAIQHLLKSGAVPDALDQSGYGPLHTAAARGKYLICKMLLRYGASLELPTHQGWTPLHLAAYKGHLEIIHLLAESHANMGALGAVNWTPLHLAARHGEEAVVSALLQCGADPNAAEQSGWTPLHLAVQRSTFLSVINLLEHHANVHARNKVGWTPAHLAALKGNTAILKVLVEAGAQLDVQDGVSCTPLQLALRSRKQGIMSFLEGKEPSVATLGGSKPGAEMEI

[4] = target: Aurora kinase B (Homo sapiens) (UniProt Q96GD4); assay: Inhibition of AURKB (unknown origin) at 10 uM by Ambit Kinomescan binding assay
Aurora kinase B (Homo sapiens), sequence (Q96GD4 whole entry): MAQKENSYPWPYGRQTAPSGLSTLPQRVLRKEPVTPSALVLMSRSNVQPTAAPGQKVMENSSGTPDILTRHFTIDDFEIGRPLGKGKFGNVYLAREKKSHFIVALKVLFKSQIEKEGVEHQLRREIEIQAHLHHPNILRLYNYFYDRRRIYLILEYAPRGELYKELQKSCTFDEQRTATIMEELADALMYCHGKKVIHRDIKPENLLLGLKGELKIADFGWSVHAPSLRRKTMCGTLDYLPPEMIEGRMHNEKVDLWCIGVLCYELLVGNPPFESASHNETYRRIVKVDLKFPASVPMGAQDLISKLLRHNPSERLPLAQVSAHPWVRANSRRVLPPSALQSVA

[5] = target: T2, Mitogen-activated protein kinase kinase kinase kinase 2 (Homo sapiens) (UniProt Q12851); assay: Inhibition of MAP4K2 (GCK) Lys1 labeling site in human A-375 cells at 5 uM by KiNativ Profiling analysis relative to control; assay type: cell-based
T2 sequence (whole entry): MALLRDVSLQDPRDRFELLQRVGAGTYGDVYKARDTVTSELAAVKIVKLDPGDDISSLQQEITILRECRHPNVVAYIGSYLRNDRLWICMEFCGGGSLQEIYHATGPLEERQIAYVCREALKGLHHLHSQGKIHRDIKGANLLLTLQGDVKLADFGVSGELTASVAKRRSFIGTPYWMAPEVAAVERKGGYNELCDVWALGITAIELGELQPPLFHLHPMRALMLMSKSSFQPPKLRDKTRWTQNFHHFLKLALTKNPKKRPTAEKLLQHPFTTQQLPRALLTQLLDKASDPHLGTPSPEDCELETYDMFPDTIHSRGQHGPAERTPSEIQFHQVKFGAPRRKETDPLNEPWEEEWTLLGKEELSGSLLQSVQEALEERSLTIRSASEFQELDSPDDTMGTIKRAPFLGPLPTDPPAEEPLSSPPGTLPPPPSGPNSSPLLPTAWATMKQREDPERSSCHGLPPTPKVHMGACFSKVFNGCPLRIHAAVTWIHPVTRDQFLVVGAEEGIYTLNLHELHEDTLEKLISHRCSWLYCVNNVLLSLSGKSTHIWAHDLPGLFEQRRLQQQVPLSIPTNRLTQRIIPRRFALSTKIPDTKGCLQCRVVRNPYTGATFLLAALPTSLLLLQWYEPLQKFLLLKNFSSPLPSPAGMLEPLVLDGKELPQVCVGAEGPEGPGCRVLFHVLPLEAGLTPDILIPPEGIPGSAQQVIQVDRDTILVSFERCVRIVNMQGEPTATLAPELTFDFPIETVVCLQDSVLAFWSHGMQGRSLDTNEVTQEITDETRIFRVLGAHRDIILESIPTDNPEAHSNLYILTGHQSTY

[6] = target: eIF-2-alpha kinase GCN2 (Homo sapiens) (UniProt Q9P2K8); assay: Inhibition of GCN2 K2 labeling site in human Huh-7 cells at 1 uM by KiNativ Profiling analysis relative to control; assay type: cell-based
eIF-2-alpha kinase GCN2 (Homo sapiens), sequence (Q9P2K8 whole entry): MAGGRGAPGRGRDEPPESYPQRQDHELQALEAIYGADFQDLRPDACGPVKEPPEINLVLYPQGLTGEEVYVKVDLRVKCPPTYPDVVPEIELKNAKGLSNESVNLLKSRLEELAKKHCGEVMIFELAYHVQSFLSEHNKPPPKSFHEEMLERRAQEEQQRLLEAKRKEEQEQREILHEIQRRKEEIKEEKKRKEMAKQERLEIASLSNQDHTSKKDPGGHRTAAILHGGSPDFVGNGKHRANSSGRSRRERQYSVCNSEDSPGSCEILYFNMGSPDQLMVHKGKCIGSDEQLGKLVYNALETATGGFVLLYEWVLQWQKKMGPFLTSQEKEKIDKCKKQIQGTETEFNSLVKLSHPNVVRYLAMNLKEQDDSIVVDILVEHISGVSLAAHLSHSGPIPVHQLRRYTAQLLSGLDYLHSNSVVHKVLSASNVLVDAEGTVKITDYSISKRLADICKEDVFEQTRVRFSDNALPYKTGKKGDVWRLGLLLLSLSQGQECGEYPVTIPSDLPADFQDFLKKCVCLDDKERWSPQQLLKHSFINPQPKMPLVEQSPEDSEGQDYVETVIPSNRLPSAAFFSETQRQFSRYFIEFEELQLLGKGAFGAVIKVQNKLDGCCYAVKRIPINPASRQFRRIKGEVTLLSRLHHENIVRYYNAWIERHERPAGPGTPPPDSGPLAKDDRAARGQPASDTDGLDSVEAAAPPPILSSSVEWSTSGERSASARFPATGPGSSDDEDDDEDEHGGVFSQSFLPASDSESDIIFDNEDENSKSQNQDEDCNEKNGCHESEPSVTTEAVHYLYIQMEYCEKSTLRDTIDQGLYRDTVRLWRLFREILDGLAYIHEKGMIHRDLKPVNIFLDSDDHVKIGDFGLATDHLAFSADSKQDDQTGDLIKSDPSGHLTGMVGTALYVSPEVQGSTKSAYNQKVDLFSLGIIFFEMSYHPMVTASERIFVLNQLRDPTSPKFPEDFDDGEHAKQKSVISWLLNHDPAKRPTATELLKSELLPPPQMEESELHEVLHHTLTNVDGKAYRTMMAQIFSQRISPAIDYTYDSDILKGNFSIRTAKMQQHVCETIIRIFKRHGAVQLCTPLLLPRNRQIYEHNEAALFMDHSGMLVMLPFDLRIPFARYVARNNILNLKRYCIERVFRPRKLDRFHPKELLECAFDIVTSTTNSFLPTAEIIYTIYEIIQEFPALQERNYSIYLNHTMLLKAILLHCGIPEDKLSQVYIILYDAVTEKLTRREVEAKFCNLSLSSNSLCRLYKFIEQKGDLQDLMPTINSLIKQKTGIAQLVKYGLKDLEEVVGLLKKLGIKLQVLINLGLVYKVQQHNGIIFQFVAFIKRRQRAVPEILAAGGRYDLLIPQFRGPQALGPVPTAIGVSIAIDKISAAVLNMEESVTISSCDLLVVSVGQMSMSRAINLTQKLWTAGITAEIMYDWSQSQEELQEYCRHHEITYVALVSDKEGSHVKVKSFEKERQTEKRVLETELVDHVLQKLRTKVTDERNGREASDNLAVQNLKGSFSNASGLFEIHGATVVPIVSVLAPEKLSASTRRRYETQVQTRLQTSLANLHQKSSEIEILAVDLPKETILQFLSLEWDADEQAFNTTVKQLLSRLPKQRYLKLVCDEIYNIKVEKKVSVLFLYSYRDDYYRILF

[7] = Inhibition of KHS1 Lys1 labeling site in human A-375 cells at 0.5 uM by KiNativ Profiling analysis relative to control; settings: condition cancer
[8] = target: Receptor tyrosine-protein kinase erbB-3 (Homo sapiens) (UniProt P21860); assay: Inhibition of HER3/ErbB3 ACT labeling site in human A-375 cells at 5 uM by KiNativ Profiling analysis relative to control; assay type: cell-based
Receptor tyrosine-protein kinase erbB-3 (Homo sapiens), sequence (P21860 whole entry): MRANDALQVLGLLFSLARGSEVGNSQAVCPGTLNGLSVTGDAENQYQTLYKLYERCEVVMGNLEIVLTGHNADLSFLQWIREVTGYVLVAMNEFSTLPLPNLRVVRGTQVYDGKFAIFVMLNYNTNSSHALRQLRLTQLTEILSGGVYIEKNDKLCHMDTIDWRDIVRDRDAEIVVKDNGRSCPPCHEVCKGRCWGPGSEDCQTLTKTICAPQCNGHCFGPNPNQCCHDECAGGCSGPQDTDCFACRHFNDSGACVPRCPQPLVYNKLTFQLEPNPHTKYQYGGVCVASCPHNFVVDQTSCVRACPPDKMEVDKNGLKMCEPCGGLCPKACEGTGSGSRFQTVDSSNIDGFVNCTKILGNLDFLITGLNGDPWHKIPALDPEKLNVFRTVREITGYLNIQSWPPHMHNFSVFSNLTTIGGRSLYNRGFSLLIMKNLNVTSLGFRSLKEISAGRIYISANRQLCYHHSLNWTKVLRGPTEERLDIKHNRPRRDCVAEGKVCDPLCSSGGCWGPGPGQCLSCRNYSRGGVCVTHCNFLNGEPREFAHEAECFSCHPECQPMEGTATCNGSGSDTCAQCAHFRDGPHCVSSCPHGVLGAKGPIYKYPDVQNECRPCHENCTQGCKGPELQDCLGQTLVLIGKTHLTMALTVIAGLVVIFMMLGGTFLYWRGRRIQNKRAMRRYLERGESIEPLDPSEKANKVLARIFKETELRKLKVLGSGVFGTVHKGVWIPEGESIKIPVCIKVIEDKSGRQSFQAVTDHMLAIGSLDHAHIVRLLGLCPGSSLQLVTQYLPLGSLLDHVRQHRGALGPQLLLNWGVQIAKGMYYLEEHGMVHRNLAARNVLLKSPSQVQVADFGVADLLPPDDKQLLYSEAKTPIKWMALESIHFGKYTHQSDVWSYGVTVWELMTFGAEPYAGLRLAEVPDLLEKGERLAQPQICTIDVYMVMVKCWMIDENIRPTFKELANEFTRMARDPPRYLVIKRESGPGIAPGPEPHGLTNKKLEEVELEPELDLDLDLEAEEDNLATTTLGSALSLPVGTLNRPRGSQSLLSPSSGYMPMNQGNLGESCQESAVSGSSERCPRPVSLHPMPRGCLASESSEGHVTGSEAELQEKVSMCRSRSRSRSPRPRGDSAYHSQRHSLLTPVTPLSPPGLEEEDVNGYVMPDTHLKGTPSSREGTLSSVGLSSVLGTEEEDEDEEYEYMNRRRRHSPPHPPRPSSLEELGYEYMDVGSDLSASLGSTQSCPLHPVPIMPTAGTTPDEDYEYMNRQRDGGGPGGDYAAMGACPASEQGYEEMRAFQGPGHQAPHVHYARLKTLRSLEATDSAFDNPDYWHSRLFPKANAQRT

[9] = target: Putative phosphatidylinositol 4-kinase alpha-like protein P2 (Homo sapiens) (UniProt A4QPH2); assay: Inhibition of PI4KAP2 ATP labeling site in human A-375 cells at 0.5 uM by KiNativ Profiling analysis relative to control; assay type: cell-based
Putative phosphatidylinositol 4-kinase alpha-like protein P2 (Homo sapiens), sequence (A4QPH2 whole entry): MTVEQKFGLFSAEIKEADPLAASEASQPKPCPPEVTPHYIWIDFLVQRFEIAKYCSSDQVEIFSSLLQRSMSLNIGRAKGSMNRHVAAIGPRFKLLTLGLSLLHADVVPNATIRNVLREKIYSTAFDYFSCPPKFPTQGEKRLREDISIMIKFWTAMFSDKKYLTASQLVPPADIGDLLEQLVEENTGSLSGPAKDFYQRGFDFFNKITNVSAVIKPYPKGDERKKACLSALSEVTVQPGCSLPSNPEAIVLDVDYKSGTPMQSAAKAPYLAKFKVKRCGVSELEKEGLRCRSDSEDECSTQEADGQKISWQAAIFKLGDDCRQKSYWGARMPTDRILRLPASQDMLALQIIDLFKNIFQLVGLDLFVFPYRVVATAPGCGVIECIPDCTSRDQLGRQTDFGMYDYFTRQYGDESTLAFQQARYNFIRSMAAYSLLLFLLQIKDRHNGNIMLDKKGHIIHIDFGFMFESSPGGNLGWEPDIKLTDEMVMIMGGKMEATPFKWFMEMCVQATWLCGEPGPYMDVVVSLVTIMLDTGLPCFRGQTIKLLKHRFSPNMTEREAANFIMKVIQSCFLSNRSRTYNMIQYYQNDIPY

[10] = target: Calcium/calmodulin-dependent protein kinase kinase 2 (Homo sapiens) (UniProt Q96RR4); assay: Inhibition of CAMKK2 (unknown origin) at 1 uM by Ambit Kinomescan binding assay relative to control; values are per cent of control

Compound CNc1cc(Oc2cc(C(=O)Nc3cc(N4CCN(C)CC4)cc(C(F)(F)F)c3)ccc2C)ncn1 has an inhibition [1] of 6.6% and an inhibition [2] of 9.8%.
With CCN1CCN(Cc2ccc(NC(=O)c3ccc(C)c(Oc4ccnc5[nH]ccc45)c3)cc2C(F)(F)F)CC1 the inhibition [3] was 23%, the inhibition [4] was “inactive” and the inhibition [5] was > 99.5%. The inhibition [6] was 12%.
CCN1CCN(Cc2ccc(NC(=O)c3ccc(C)c(/C=C/c4cnc5[nH]ccc5c4OC)c3)cc2C(F)(F)F)CC1 gave an inhibition at 0.5 µM [7] of 53.7%, an inhibition [8] of -3.7% and an inhibition [9] of -8%. For the same compound, the residual activity [10] was 100%.

Source: ChEMBL document CHEMBL5696442, “Discovery of type II inhibitors of TGFβ-activated kinase 1 (TAK1) and mitogen-activated protein kinase kinase kinase kinase 2 (MAP4K2)” (J Med Chem, 2015)
